The assay has as its target T1, GPR103 Q318^7.39A (Homo sapiens, UniProt Q96P65, Q318A).
T1 construct: we used human full-length QRFPR-encoding plasmids; expressed in transfected cells; host or cells: HEK293 cells (HEK293A in the flow cytometry section), pCAGGS vector
T1 sequence (Q96P65 1-431 Q318A): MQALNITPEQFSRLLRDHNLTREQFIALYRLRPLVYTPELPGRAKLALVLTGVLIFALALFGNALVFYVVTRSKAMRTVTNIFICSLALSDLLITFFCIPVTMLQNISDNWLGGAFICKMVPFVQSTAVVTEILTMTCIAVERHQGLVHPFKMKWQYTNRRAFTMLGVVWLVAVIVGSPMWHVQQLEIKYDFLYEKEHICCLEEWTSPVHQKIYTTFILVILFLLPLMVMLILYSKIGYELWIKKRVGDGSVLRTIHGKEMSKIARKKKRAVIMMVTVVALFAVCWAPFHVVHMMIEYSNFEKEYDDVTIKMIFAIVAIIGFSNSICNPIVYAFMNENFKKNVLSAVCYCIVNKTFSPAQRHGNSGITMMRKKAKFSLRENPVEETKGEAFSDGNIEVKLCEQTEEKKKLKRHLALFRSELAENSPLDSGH
The assay is described as follows: TGFα shedding assay; Exp. level WT (1:50). It counts as cell-based.

Read-outs that look alike come from different tables or passages of the source. No end group written: not given here.

Turning to TSGPLGNLAEELNGYSRKKGGFSFRF-NH2 [QRFP26], the Emax was 14.85 % WT (Exp. #1); 10.08 % WT (Exp. #2); 10.26 % WT (Exp. #3); 11.7% (mean, read-out: Emax); 11.7 ± 1.3% (n = 3, read-out: Emax). Moreover, a half-maximal effect (n = 3) (EC50) was put at 85.1 nM.

The values are drawn from PMC11187126, “Structure and dynamics of the pyroglutamylated RF-amide peptide QRFP receptor GPR103” (Nature Communications, 2024).
